Earlier results on one compound are cited in US20180214412A1, “IMMEDIATE RELEASE CANNABINOID FORMULATIONS” (CannTab Therapeutics Limited, priority 2017, published 2018).

Bounds are passed on as bounds.

The conditions of the data set: after administration.

`CCCCCc1cc(O)c2c(c1)OC(C)(C)[C@@H]1CCC(C)=C[C@@H]21` [Dronabinol, (−)-trans-Δ9-tetrahydrocannabinol]: the “duration of appetite stimulant effect” value is no less than 24 h.
